Laboratory results as given in patent US20140018418A1 (priority 2007, published 2014).
Like-named read-outs stand apart in the source and are kept apart here.

What was measured:
[1] = test system: A/Hanoi/UT30408(clone 7)/2005 (H5N1); parameters: species or system mice (Balb/c); details: mouse, in vivo
[2] = test system: H5N1 influenza virus A/Hanoi/30408/2005 (clone 7), oseltamivir sensitive strain; experiment: microbe, parasite or virus in culture; assay type: cell-based

Compound: 5-Acetamido-4-guanidino-9-O-octanoyl-2,3,4,5-tetradeoxy-7-O-methyl-D-glycero-D-galacto-non-2-enopyranosoic acid [Compound of Preparation Example 1]
- number of mice surviving, Day 10 [1]: 7

Compound: CO[C@@H]([C@@H]1OC(C(=O)O)=C[C@H](NC(=N)N)[C@H]1NC(C)=O)[C@H](O)CO [Compound of Preparation Example 2, 5-Acetamido-4-guanidino-2,3,4,5-tetradeoxy-7-O-methyl-D-glycero-D-galacto-non-2-enopyranosoic acid]
- IC50 ([2]; Influenza A virus, H5N1, MDCK, read-out: Viral Proliferation Inhibitory Activity (IC50, nM)): 0.43 nM

Compound: CC(=O)N[C@H]1[C@H]([C@H](O)[C@H](O)CO)OC(C(=O)O)=C[C@@H]1N=C(N)N [Zanamivir, reference compound]
- IC50 ([2]; read-out: Viral Proliferation Inhibitory Activity (IC50)): 3.3 nM
